Each structure is given as a SMILES string.

The target in this experiment is GABAa receptor. The experiment in a line: GABAa receptor binding assay (displacement of 3H-RO15-1788, rat cortical tissue homogenate). The settings on record: 3H-RO15-1788 0.5 nM, 30 min at 4° C., pH 7.4. The procedure: The pharmaceutical utility of compounds of this invention are indicated by the following assay for GABAa receptor activity.
Assays are carried out as described in Thomas and Tallman (J. Bio. Chem. 156: 9838-9842, J. Neurosci. 3: 433-440, 1983). Rat conical tissue is dissected and homogenized in 25 volumes (w/v) of 0.05M Tris HCl buffer (pH 7.4 at 4° C.). The tissue homogenate is centrifuged in the cold (4°) at 20,000× g for 20'. The supernatant is decanted and the pellet is rehomogenized in the same volume of buffer and again centrifuged at 20,000× g. The supernatant is decanted and the pellet is frozen at -20° C. overnight. The pellet is then thawed and rehomogenized in 25 volume (original wt/vol) of buffer and the procedure is carried out twice. The pellet is finally resuspended in 50 volumes (w/vol of 0.05M Tris HCl buffer (pH 7.4 at […]).
Incubations contain 100 μl of tissue homogenate 100 μl of radioligand 0.5 nM (^3 H-RO15-1788 specific activity 80 Ci/mmol), drug or blocker and buffer to a total volume of 500 μl. Incubations are carried for 30 min at 4° C. then are rapidly filtered through GFB filters to separate free and bound ligand. Filters are washed twice with fresh 0.05M Tris HCl buffer (pH 7.4 at 4° C.) and counted in a liquid scintillation counter. 1.0 μM diazepam is added to some tubes to determine nonspecific binding. Data are collected in triplicate determinations, averaged and % inhibition of total specific binding is calculated. Total Specific Binding=Total-Nonspecific. In some cases, the amounts of unlabeled drugs is varied and total displacement curves of binding are carried out. Data are convened to a form for the calculation of IC50 and Hill Coefficient (nH).
One may read the IC50 as the point on the concentration scale where inhibition reaches its midpoint. Turning to `O=C(c1ccccc1)N1CCc2[nH]c(=O)n3cc(-c4ccccc4F)nc3c2C1` [Compound 1, 9-Benzoyl-2-(2-fluorophenyl)-7,8,9,10-tetrahydro-imidazo[1,2-c]pyrido[3,4-e]pyrimidin-5(6H)-one], the IC50 was found to be 500 nM. For `O=c1[nH]c2c(c3nc(-c4cccc(Cl)c4)cn13)CN(Cc1ccccc1)CC2` [Compound 14, 9-Benzyl-2-(3-chlorophenyl)-7,8,9,10-tetrahydro-imidazo[1,2-c]pyrido[3,4-e] pyrimidin-5(6H)-one] the value was 100 nM; for `O=c1[nH]c2c(c3nc(-c4ccccc4F)cn13)CN(Cc1ccc(F)cc1)CC2` [Compound 22, 9-(4-Fluorobenzyl)-2-(2-fluorophenyl)-7,8,9,10-tetrahydro-imidazo[1,2-c]pyrido[3,4-e]pyrimidin-5(6H)-one], 3.8 nM. For `CC(c1ccccc1)N1CCc2[nH]c(=O)n3cc(-c4ccccc4F)nc3c2C1` (racemic) [Compound 21, ±9-(α-Methylbenzyl)-2-(2-fluorophenyl)-7,8,9,10-tetrahydro-imidazo[1,2-c]pyrido[3,4-e] pyrimidin-5(6H)-one] the value was 4.8 nM; for `O=C(OCc1ccccc1)N1CCc2[nH]c(=O)n3cc(-c4ccccc4F)nc3c2C1` [Compound 44, 9-Carbobenzyloxy-2-(2-fluorophenyl)-7,8,9,10-tetrahydro-imidazo[1,2-c]pyrido[3,4-e]pyrimidin-5(6H)-one], 10 nM. In turn, `O=c1[nH]c2c(c3nc(-c4ccccc4F)cn13)CN(Cc1ccccc1F)CC2` [Compound 13, 9-(2-Fluorobenzyl)-2-(2-fluorophenyl)-7,8,9,10-tetrahydro-imidazo[1,2-c]pyrido[3,4-e] pyrimidin-5(6H)-one] showed an IC50 of 2.4 nM. The same measure for `CN1CCc2[nH]c(=O)n3cc(-c4ccccc4F)nc3c2C1` [Compound 49, 9-Methyl-2-(2-fluorophenyl)-7,8,9,10-tetrahydro-imidazo[1,2-c]pyrido[3,4-e]pyrimidin-5(6H)-one]: 30 nM; for `CCC(=O)N1CCc2[nH]c(=O)n3cc(-c4ccccc4F)nc3c2C1` [Compound 36, 9-propionyl-2-(2-fluorophenyl)-7,8,9,10-tetrahydro-imidazo[1,2-c]pyrido[3,4-e]pyrimidin-5(6H)-one]: 10 nM.

For the origin of these results see patent US5328912A (priority 1993, dated 1994).
